Key:
[1] = Blood level in mice after administration (HPLC of blood/plasma); assay type: in vivo, Mäuse; conditions: po; mouse blood, peroral 120 mg/kg, 30 min after administration; read-out: Konzentration
Experimental: Die pharmakodynamischen Eigenschaften der Verbindungen der Formel können beispielsweise wie folgt belegt werden: • Die zu untersuchenden Verbindungen der Formel oder (beispielsweise als Kontrolle) die entsprechende Verbindung der Formel werden in einem organischen Lösungsmittel, wie Dimethylsulfoxid (DMSO), in einer Konzentration von 240 mg/ml gelöst. Die resultierenden Lösungen werden mit 20% (w/v) Hydroxypropyl-ßcyclodextrin (HPßCD) verdünnt, um eine Konzentration der Testsubstanz von 12 mg/ml zu erhalten. Diese Lösung wird Mäusen oral durch künstliche Sonderernährung in einer Dosis von 120 mg/kg verabreicht. 30, 60, 90 und 120 min nach der Verabreichung werden die Tiere getötet und Blut entnommen. Pro Zeitpunkt werden drei bis vier Tiere untersucht. Das Blut wird heparinisiert und für die Analyse durch eine der folgenden beiden Methoden vorbereitet: Nach der ersten Methode wird Vollblut deproteinisiert durch Mischen eines Volumenteils Blut mit einem Volumenteil Acetonitril; nach Zentrifugation (10 000 g, 5 min) wird der Überstand durch Reversed-Phase-HPLC untersucht. Nach der zweiten Methode werden 2 µl einer 1 mM Lösung eines internen Standards (wie einer anderen Verbindung der Formel I) zu 0,5 ml heparinisiertem Blut zugegeben. Das Blut wird zentrifugiert (10 000 g, 5 min), und das Plasma mit demselben Volumen Acetonitril vermischt. […]

[2] = test system: HIV-1; assay: Protection of MT-2 cells against HIV-1 infection (reverse transcriptase activity in supernatant); assay type: cell-based; conditions: Human immunodeficiency virus 1, MT2, 96 h; lowest concentration lowering RT activity by 90 %; MT-2 cells with HIV-1, 4 days incubation; read-out: ED90 (the source's name)
Text: In einem weiteren Test kann gezeigt werden, dass die Verbindungen der vorliegenden Erfindung Zellen, die normalerweise von HIV infiziert werden, vor einer solchen Infektion schützen oder zumindest eine solche Infektion verlangsamen. Dabei wird die menschliche T-Zell-Leukämie Zellinie MT-2 (Science 229, 563 (1985)), die empfindlich gegen den zytopathogenen Effekt von HIV ist, mit HIV-1 allein oder mit HIV-1 in Gegenwart einer der erfindungsgemässen Verbindungen inkubiert und nach einigen Tagen die Lebensfähigkeit der so behandelten Zellen beurteilt. Hierzu werden die MT-2-Zellen in RPMI 1640-Medium (Gibco, Schweiz; RPMI 1640 enthält ein Aminosäurengemisch ohne L-Gln), das mit 10% hitzeinaktiviertem fetalem Kälberserum, L-Glutamin, Hepes (2-[4-(2-Hydroxyethyl)-1-piperazino]-ethansulfonsäure) und Standardantibiotika supplementiert ist, bei 37 °C in befeuchteter Luft mit 5% CO2 gehalten. 50 µl der jeweiligen Testverbindung in Kulturmedium und 100 µl HIV-1 in Kulturmedium (800 TCID50/ml) (TCID50 = Tissue Culture Infectious Dose 50 = Dosis, die 50% der MT-2-Zellen infiziert) werden zu 4x1 0^3 exponentiell wachsenden MT-2-Zellen in 50 µl Kulturmedium pro Vertiefung auf 96-Loch-Mikrotiterplatten gegeben. Parallele Ansätze auf einerweiteren Mikrotiterplatte mit Zellen und Testverbindung erhalten 100 µl Kulturmedium ohne Virus. […]

## COc1ccc(C[C@H](C[C@H](O)[C@H](Cc2ccccc2)NC(=O)OC(C)(C)C)C(=O)N[C@H](C(=O)N[C@@H](Cc2ccccc2)C(=O)N2CCOCC2)C(C)C)cc1 [5(S)-(tert-Butoxycarbonylamino)-4(S)-hydroxy-2(R)-(p-methoxy-phenylmethyl)-6-phenyl-hexanoyl-(L)-valyl-(L)-phenyl-alanyl-morpholin-4-ylamid]
[1]
  concentration at 0.5 h: 10.8 µM
[2]
  EC90: 100 nM
